Experimental data reported in patent publication EP1005865A1, “A anti-allergy anti-inflammatory composition comprising nimesulide and cetirizine” (priority 1998, dated 2000).
Structures can show the parent of a compound that is named as a salt.

Assays:
[1] = system: chronic hives patients; settings: daily regimen of 10mg of cetirizine; cited from earlier work
[2] = system: Leukotriene D4 (LTD4) induced bronchoconstrictor in guinea pigs; assay: Leukotriene D4-induced bronchospasm in guinea pig (insufflation pressure); settings: for % Insufflation pressure after LTD4 1 µg/kg LTD4: control 186.02 ± 52.58; for % Insufflation pressure after LTD4 2 µg/kg LTD4: control 246.56 ± 14.33; for decrease in % insufflation pressure, LTD4-induced bronchoconstriction: matches the 1 µg/kg LTD4 column of Table 3
[3] = system: Histamine induced bronchoconstrictor in guinea pigs; assay: Histamine-induced bronchospasm in anaesthetised, ventilated guinea pig (insufflation pressure); settings: for Histamine Challenge (% Insufflation pressure) 5 µg/kg: histamine 5 µg/kg iv, control 187.42 ± 22.49; for Histamine Challenge (% Insufflation pressure) 10 µg/kg: histamine 10 µg/kg iv, control 239.07 ± 43.64
[4] = system: PDE IV; settings: PDE IV inhibitor in vitro, reported; cited from earlier work
[5] = system: Antigen (egg albumin) induced bronchoconstrictor in guinea pigs; assay: Egg albumin (antigen)-induced bronchospasm in sensitized guinea pig (insufflation pressure)
Procedure: The animals were stabilized for 10 minutes.
Cetirizine was dissolved in deionized water. […] Histamine and d-tubocurarine chloride were dissolved in saline and Leukotriene D4 was diluted with Methanol and Ammonium Acetate buffer in a ratio of 70 : 30 at a pH of 5.4.
Guinea pigs were sensitized by injections of 100 mg of Egg albumin ip and 100 mg Egg albumin sc in saline. Guinea pigs were used after day 21st.

[6] = cited from earlier work
[7] = Cetrizine 1.16 mg/kg p.o 2 hours before challenge, n 1
[8] = Cetrizine 1.16 mg/kg p.o 2 hours before challenge
[9] = Nimesulide 11.66 mg/kg p.o 2 hours before challenge
[10] = Nimesulide 23.32 mg/kg p.o 2 hours before challenge

## O=C(O)COCCN1CCN(C(c2ccccc2)c2ccc(Cl)cc2)CC1 (centres unmarked) [Cetrizine, Cetirizine dihydrochloride]
[1]
  chronic hives patients reporting excellent results: ~70%
[2]; [7]
  % Insufflation pressure after LTD4 1 µg/kg LTD4: 57.14%
  % Insufflation pressure after LTD4 2 µg/kg LTD4: 92.85%
[2]; Cetirizine 1.16 mg/kg
  effect on LTD4-induced contractions: significantly blocked
[2]; Cetirizine 1.16 mg/kg p.o
  decrease in % insufflation pressure, LTD4-induced bronchoconstriction: 42.86%
[3]; Cetirizine 1.16 mg/kg p.o, matches the 5 µg/kg histamine column of Table 1
  decrease in % insufflation pressure, histamine induced bronchoconstriction: 62.71%
[3]; [8]
  Histamine Challenge (% Insufflation pressure) 5 µg/kg: 37.29 ± 6.76 %
  Histamine Challenge (% Insufflation pressure) 10 µg/kg: 68.35 ± 18.20 %
[3]; histamine 5 and 10 µg/kg, Cetirizine 1.66 mg/kg (so in the source)
  effect on histamine induced increase in insufflation pressure: significantly reduced

## CS(=O)(=O)Nc1ccc([N+](=O)[O-])cc1Oc1ccccc1 [Nimesulide]
[4]
  IC50: ~40 µM
[2]; [9]
  % Insufflation pressure after LTD4 1 µg/kg LTD4: 192.45 ± 45.53%
  % Insufflation pressure after LTD4 2 µg/kg LTD4: 197.02 ± 37.76%
[2]; [10]
  % Insufflation pressure after LTD4 1 µg/kg LTD4: 38.99 ± 19.79 %
  % Insufflation pressure after LTD4 2 µg/kg LTD4: 140.07 ± 61.15 %
[2]; Nimesulide 11.66 mg/kg
  effect on insufflation pressure, LTD4-induced contractions: no effect
[2]; Nimesulide 23.32 mg/kg p.o
  decrease in % insufflation pressure, LTD4-induced bronchoconstriction: 61.0%
[2]; double dose Nimesulide 23.32 mg/kg
  effect on LTD4-induced contractions: potent inhibitory effect
[5]; Nimesulide 11.66 mg/kg p.o, matches the 1 mg/kg egg albumin column of Table 2
  decrease in % insufflation pressure, egg albumin induced bronchoconstriction: 90.24%
[5]; egg albumin 1 mg/kg, 2 mg/kg, Nimesulide 11.66 mg/kg
  effect on egg albumin induced insufflation pressure: significantly reduced
[5]; sensitized guinea pigs, egg albumin 1 mg/kg, Nimesulide 11.66 mg/kg p.o, control 111.88 ± 10.53
  % Insufflation pressure after egg albumin challange 1 mg/kg: 9.76 ± 4.17 %
[5]; sensitized guinea pigs, egg albumin 2 mg/kg, Nimesulide 11.66 mg/kg p.o, control 196.90 ± 32.98
  % Insufflation pressure after egg albumin challange 2 mg/kg: 19.39 ± 4.32 %
[3]; Nimesulide single dose, S, 11.66 mg/kg and double dose, D, 23.32 mg/kg
  effect on histamine induced increase in insufflation pressure: no significant inhibitory effect
[3]; Nimesulide, dose not given
  antihistaminic effect, histamine induced bronchoconstriction: no antihistaminic effect
[3]; [9]
  Histamine Challenge (% Insufflation pressure) 5 µg/kg: 171.07 ± 23.76%
  Histamine Challenge (% Insufflation pressure) 10 µg/kg: 236.47 ± 40.40%
[3]; [10]
  Histamine Challenge (% Insufflation pressure) 5 µg/kg: 163.15 ± 43.27%
  Histamine Challenge (% Insufflation pressure) 10 µg/kg: 205.10 ± 31.33%

## O=C(O)c1cc(=O)c2c(OCC(O)COc3cccc4oc(C(=O)O)cc(=O)c34)cccc2o1 [cromolyn sodium]
[6]; inhaled, taken 4 times daily
  half-life: 45 to 100 min
[6]; oral dose
  fraction of an oral dose absorbed: about 1%
